Our source for the viability, T/C values is PubChem BioAssay AID1963984 (Molecular Pharmacology Branch, DTP, NCI, 2024).
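Note: spheroids exposed to agents for seven days before readout; percent viability relative to DMSO vehicle control taken as 100%.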

One experiment deals with 233499-124-R-J3-PDC spheroids with HUVEC/MSC, viability. The experiment is described as follows: Anticancer human tumor 233499-124-R-J3-PDC patient-derived colon adenocarcinoma cell line growth inhibition [PI3K]. The note with it: second compound 0.00316 µM; first compound 3.16 µM; hits give low values. In short, it runs like this: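 Complex 3D spheroids (cancer cells + endothelial HUVEC + mesenchymal stem cells); drug pairs of targeted agent x inavolisib/alpelisib/duvelisib/copanlisib; half-log series from ~Cmax, max 10 microM if Cmax unknown; endpoint viability.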
As usually defined, the viability, T/C is the ratio of treated to control. For the compound `Cn1ncc(Cl)c1-c1cc(C(=O)NC(CN)Cc2cccc(F)c2)sc1Cl` (configuration not stated) + CC(Nc1ccc2c(c1)OCCn1cc(N3C(=O)OCC3C(F)F)nc1-2)C(N)=O, the viability, T/C was 58.4%.

For `CCCS(=O)(=O)Nc1ccc(F)c(C(=O)c2c[nH]c3ncc(-c4ccc(Cl)cc4)cc23)c1F` + CC(Nc1ccc2c(c1)OCCn1cc(N3C(=O)OCC3C(F)F)nc1-2)C(N)=O, the viability, T/C was 104%.

Staying with this experiment, now noted: second compound 0.00316 µM; first compound 10 µM; hits give low values.
With `CCCS(=O)(=O)Nc1ccc(F)c(C(=O)c2c[nH]c3ncc(-c4ccc(Cl)cc4)cc23)c1F` + COc1c(OCCCN2CCOCC2)ccc2c3n(c(=NC(=O)c4cnc(N)nc4)nc12)CCN3, the viability, T/C is 5.08%.

Take `Cn1ncc(Cl)c1-c1cc(C(=O)NC(CN)Cc2cccc(F)c2)sc1Cl` (configuration not stated) + CC(Nc1ccc2c(c1)OCCn1cc(N3C(=O)OCC3C(F)F)nc1-2)C(N)=O: the viability, T/C is 30.5%.

On to `CCCS(=O)(=O)Nc1ccc(F)c(C(=O)c2c[nH]c3ncc(-c4ccc(Cl)cc4)cc23)c1F` + CC(Nc1ccc2c(c1)OCCn1cc(N3C(=O)OCC3C(F)F)nc1-2)C(N)=O, for which the viability, T/C is 2.87%.

The same experiment, now with this note: second compound 0.01 µM; first compound 0.0316 µM; hits give low values.
Take `CCCS(=O)(=O)Nc1ccc(F)c(C(=O)c2c[nH]c3ncc(-c4ccc(Cl)cc4)cc23)c1F` + COc1c(OCCCN2CCOCC2)ccc2c3n(c(=NC(=O)c4cnc(N)nc4)nc12)CCN3: the viability, T/C is 88.4%.

In the case of `Cn1ncc(Cl)c1-c1cc(C(=O)NC(CN)Cc2cccc(F)c2)sc1Cl` (configuration not stated) + CC(Nc1ccc2c(c1)OCCn1cc(N3C(=O)OCC3C(F)F)nc1-2)C(N)=O, the viability, T/C was 86.1%.

Regarding `CCCS(=O)(=O)Nc1ccc(F)c(C(=O)c2c[nH]c3ncc(-c4ccc(Cl)cc4)cc23)c1F` + CC(Nc1ccc2c(c1)OCCn1cc(N3C(=O)OCC3C(F)F)nc1-2)C(N)=O, the viability, T/C is 90.2%.

The experiment is the same for the next values; noted with them: second compound 0.01 µM; first compound 0.1 µM; hits give low values.
`CCCS(=O)(=O)Nc1ccc(F)c(C(=O)c2c[nH]c3ncc(-c4ccc(Cl)cc4)cc23)c1F` + COc1c(OCCCN2CCOCC2)ccc2c3n(c(=NC(=O)c4cnc(N)nc4)nc12)CCN3: the viability, T/C was 93.8%.

For the compound `Cn1ncc(Cl)c1-c1cc(C(=O)NC(CN)Cc2cccc(F)c2)sc1Cl` (configuration not stated) + CC(Nc1ccc2c(c1)OCCn1cc(N3C(=O)OCC3C(F)F)nc1-2)C(N)=O, the viability, T/C is 81.8%.

With `CCCS(=O)(=O)Nc1ccc(F)c(C(=O)c2c[nH]c3ncc(-c4ccc(Cl)cc4)cc23)c1F` + CC(Nc1ccc2c(c1)OCCn1cc(N3C(=O)OCC3C(F)F)nc1-2)C(N)=O, the viability, T/C was 94.5%.

The same experiment, now with this note: second compound 0.01 µM; first compound 0.316 µM; hits give low values.
On to `CCCS(=O)(=O)Nc1ccc(F)c(C(=O)c2c[nH]c3ncc(-c4ccc(Cl)cc4)cc23)c1F` + COc1c(OCCCN2CCOCC2)ccc2c3n(c(=NC(=O)c4cnc(N)nc4)nc12)CCN3, for which the viability, T/C is 88.9%.

Take `Cn1ncc(Cl)c1-c1cc(C(=O)NC(CN)Cc2cccc(F)c2)sc1Cl` (configuration not stated) + CC(Nc1ccc2c(c1)OCCn1cc(N3C(=O)OCC3C(F)F)nc1-2)C(N)=O: the viability, T/C was 81.5%.

As for `CCCS(=O)(=O)Nc1ccc(F)c(C(=O)c2c[nH]c3ncc(-c4ccc(Cl)cc4)cc23)c1F` + CC(Nc1ccc2c(c1)OCCn1cc(N3C(=O)OCC3C(F)F)nc1-2)C(N)=O, the viability, T/C is 97.1%.

The experiment is the same for the next values; noted with them: second compound 0.01 µM; first compound 1 µM; hits give low values.
Turning to `CCCS(=O)(=O)Nc1ccc(F)c(C(=O)c2c[nH]c3ncc(-c4ccc(Cl)cc4)cc23)c1F` + COc1c(OCCCN2CCOCC2)ccc2c3n(c(=NC(=O)c4cnc(N)nc4)nc12)CCN3, the viability, T/C was 83%.

Regarding `Cn1ncc(Cl)c1-c1cc(C(=O)NC(CN)Cc2cccc(F)c2)sc1Cl` (configuration not stated) + CC(Nc1ccc2c(c1)OCCn1cc(N3C(=O)OCC3C(F)F)nc1-2)C(N)=O, the viability, T/C is 80.8%.

For the compound `CCCS(=O)(=O)Nc1ccc(F)c(C(=O)c2c[nH]c3ncc(-c4ccc(Cl)cc4)cc23)c1F` + CC(Nc1ccc2c(c1)OCCn1cc(N3C(=O)OCC3C(F)F)nc1-2)C(N)=O, the viability, T/C is 98.2%.

Still in this experiment, the particulars now being: second compound 0.01 µM; first compound 3.16 µM; hits give low values.
`CCCS(=O)(=O)Nc1ccc(F)c(C(=O)c2c[nH]c3ncc(-c4ccc(Cl)cc4)cc23)c1F` + COc1c(OCCCN2CCOCC2)ccc2c3n(c(=NC(=O)c4cnc(N)nc4)nc12)CCN3: the viability, T/C is 90.1%.

As for `Cn1ncc(Cl)c1-c1cc(C(=O)NC(CN)Cc2cccc(F)c2)sc1Cl` (configuration not stated) + CC(Nc1ccc2c(c1)OCCn1cc(N3C(=O)OCC3C(F)F)nc1-2)C(N)=O, the viability, T/C is 53.3%.

Turning to `CCCS(=O)(=O)Nc1ccc(F)c(C(=O)c2c[nH]c3ncc(-c4ccc(Cl)cc4)cc23)c1F` + CC(Nc1ccc2c(c1)OCCn1cc(N3C(=O)OCC3C(F)F)nc1-2)C(N)=O, the viability, T/C is 84.9%.

The same experiment, now with this note: second compound 0.01 µM; first compound 10 µM; hits give low values.
As to `CCCS(=O)(=O)Nc1ccc(F)c(C(=O)c2c[nH]c3ncc(-c4ccc(Cl)cc4)cc23)c1F` + COc1c(OCCCN2CCOCC2)ccc2c3n(c(=NC(=O)c4cnc(N)nc4)nc12)CCN3, the viability, T/C is 14.7%.

Turning to `Cn1ncc(Cl)c1-c1cc(C(=O)NC(CN)Cc2cccc(F)c2)sc1Cl` (configuration not stated) + CC(Nc1ccc2c(c1)OCCn1cc(N3C(=O)OCC3C(F)F)nc1-2)C(N)=O, the viability, T/C is 32.1%.

`CCCS(=O)(=O)Nc1ccc(F)c(C(=O)c2c[nH]c3ncc(-c4ccc(Cl)cc4)cc23)c1F` + CC(Nc1ccc2c(c1)OCCn1cc(N3C(=O)OCC3C(F)F)nc1-2)C(N)=O: the viability, T/C was 2.03%.

Still in this experiment, the particulars now being: second compound 0.0316 µM; first compound 0.0316 µM; hits give low values.
Regarding `CCCS(=O)(=O)Nc1ccc(F)c(C(=O)c2c[nH]c3ncc(-c4ccc(Cl)cc4)cc23)c1F` + COc1c(OCCCN2CCOCC2)ccc2c3n(c(=NC(=O)c4cnc(N)nc4)nc12)CCN3, the viability, T/C was 89.7%.

`Cn1ncc(Cl)c1-c1cc(C(=O)NC(CN)Cc2cccc(F)c2)sc1Cl` (configuration not stated) + CC(Nc1ccc2c(c1)OCCn1cc(N3C(=O)OCC3C(F)F)nc1-2)C(N)=O: the viability, T/C was 111%.

For the compound `CCCS(=O)(=O)Nc1ccc(F)c(C(=O)c2c[nH]c3ncc(-c4ccc(Cl)cc4)cc23)c1F` + CC(Nc1ccc2c(c1)OCCn1cc(N3C(=O)OCC3C(F)F)nc1-2)C(N)=O, the viability, T/C is 77.3%.

Still in this experiment, the particulars now being: second compound 0.0316 µM; first compound 0.1 µM; hits give low values.
`CCCS(=O)(=O)Nc1ccc(F)c(C(=O)c2c[nH]c3ncc(-c4ccc(Cl)cc4)cc23)c1F` + COc1c(OCCCN2CCOCC2)ccc2c3n(c(=NC(=O)c4cnc(N)nc4)nc12)CCN3: the viability, T/C was 78.3%.

Consider `Cn1ncc(Cl)c1-c1cc(C(=O)NC(CN)Cc2cccc(F)c2)sc1Cl` (configuration not stated) + CC(Nc1ccc2c(c1)OCCn1cc(N3C(=O)OCC3C(F)F)nc1-2)C(N)=O, for which the viability, T/C is 82.9%.

As to `CCCS(=O)(=O)Nc1ccc(F)c(C(=O)c2c[nH]c3ncc(-c4ccc(Cl)cc4)cc23)c1F` + CC(Nc1ccc2c(c1)OCCn1cc(N3C(=O)OCC3C(F)F)nc1-2)C(N)=O, the viability, T/C is 90.3%.

The experiment is the same for the next values; noted with them: second compound 0.0316 µM; first compound 0.316 µM; hits give low values.
As for `CCCS(=O)(=O)Nc1ccc(F)c(C(=O)c2c[nH]c3ncc(-c4ccc(Cl)cc4)cc23)c1F` + COc1c(OCCCN2CCOCC2)ccc2c3n(c(=NC(=O)c4cnc(N)nc4)nc12)CCN3, the viability, T/C was 84.2%.

As for `Cn1ncc(Cl)c1-c1cc(C(=O)NC(CN)Cc2cccc(F)c2)sc1Cl` (configuration not stated) + CC(Nc1ccc2c(c1)OCCn1cc(N3C(=O)OCC3C(F)F)nc1-2)C(N)=O, the viability, T/C is 80.3%.

Regarding `CCCS(=O)(=O)Nc1ccc(F)c(C(=O)c2c[nH]c3ncc(-c4ccc(Cl)cc4)cc23)c1F` + CC(Nc1ccc2c(c1)OCCn1cc(N3C(=O)OCC3C(F)F)nc1-2)C(N)=O, the viability, T/C is 85.8%.
